From patent publication US20260109694A1, “HETEROCYCLIC COMPOUNDS AND USES THEREOF” (Kumquat Biosciences Inc., priority 2023, published 2026) come the findings set out here.

One assay deals with T1, PTPN2 (Homo sapiens, UniProt P17706).
T1 sequence (P17706 1-415): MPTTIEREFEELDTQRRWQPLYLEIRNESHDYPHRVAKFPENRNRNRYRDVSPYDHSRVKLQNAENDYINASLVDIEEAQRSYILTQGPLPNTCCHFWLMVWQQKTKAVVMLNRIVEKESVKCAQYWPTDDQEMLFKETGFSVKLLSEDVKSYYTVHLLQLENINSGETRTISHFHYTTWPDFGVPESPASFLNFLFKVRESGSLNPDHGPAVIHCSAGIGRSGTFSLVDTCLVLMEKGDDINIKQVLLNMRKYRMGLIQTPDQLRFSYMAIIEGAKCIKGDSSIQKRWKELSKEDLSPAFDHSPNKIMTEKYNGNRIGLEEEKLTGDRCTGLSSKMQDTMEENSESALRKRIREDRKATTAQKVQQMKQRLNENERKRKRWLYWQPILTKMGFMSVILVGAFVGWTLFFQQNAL
As to the kind of experiment: Phosphatase activity assay (DiFMUP substrate). Format: biochemical. Particulars: value bin printed in column head. The method, then: (§1) The selectivity and potency of a small molecule PTPN2 inhibitor as provided herein against one or more protein tyrosine phosphatase (PTP) enzymes, and specifically against PTPN2, is assessed in various ways. The one or more PTP enzymes comprise Mycobacterium protein tyrosine phosphatase A (mPTPA), Mycobacterium protein tyrosine phosphatase B (mPTPB), PTPN1 (i.e., PTP1B), PTPN2 (i.e., TC-PTP), PTPN22 (i.e., LYP), SHP-1, SHP-2, FAP-1, Meg2, HePTP, Laforin, VHX, VHR, LMWPTP, Cdc14A, LAR, CD45, PTPRG, a fragment thereof, a variant thereof, and a combination thereof. Selectivity and potency of a small molecule PTPN2 inhibitor is evaluated using a PTP activity inhibition assay. The assay is performed using a buffer comprising 50 mM HEPES buffer pH 7.5, 150 mM NaCl, 0.5 mM EDTA, 1 mM DTT, 0.001% Tween-20.
(§2) The assay is performed using a phosphated substrate, e.g., 10 mM 6,8-Difluoro-4-Methylumbelliferyl Phosphate (DIFMUP) that is stored at −20° C. Alternatively or in addition to, the assay is performed using other phosphated substrate (e.g., fluorescein diphosphate). Each PTP enzyme is diluted in the assay buffer
(§3) The assay can be carried out at room temperature in multiplate format, e.g., using 384 well plates. A small molecule PTPN2 inhibitor dissolved in DMSO at one of 10 concentrations from a serial dilution or DMSO alone for control is added to each well. A mixture of the assay buffer comprising PTP enzyme (e.g., 0.025 ng/ul PTPN2) is added to each well and mixed for approximately 2 minutes. The reaction is initiated by adding DiFMUP diluted in the assay buffer to a final concentration of approximately 45 µM DiFMUP in PTPN2 assay. For each PTP enzyme, DiFMUP is added at the Km (Michaelis constant) of the enzyme that had been independently determined. The phosphatase activity of the PTP enzyme is assessed by monitoring appearance of a fluorescent product (6,8-difluoro-7-hydroxyl-4-coumarin (DiFMU) from DiFMUP) continuously for about 15 to 30 minutes, using the INFINITE M1000Pro plate reader (Tecan) with excitation at 360 nm and emission at 450 nm (cutoff filter at 435 nm) for DiFMU. Each assay is performed at least in duplicate. The rate (e.g., the initial rate) of DiFMU formation is plotted against the concentration of the small molecule PTPN2 inhibitor, and the data is fitted (e.g., using a 4-parameter equation) to determine the inflection point of the fit as the IC50 of the small molecule PTPN2 inhibitor for a specific enzyme. Utilizing this assay, the ability of the compounds in Table 1 to inhibit PTPN2 and PTP1B has been assessed. Table 3 summarizes the IC50 values.

The next assay deals with T2, PTP1B (Homo sapiens, UniProt P18031).
T2 sequence (P18031 1-435): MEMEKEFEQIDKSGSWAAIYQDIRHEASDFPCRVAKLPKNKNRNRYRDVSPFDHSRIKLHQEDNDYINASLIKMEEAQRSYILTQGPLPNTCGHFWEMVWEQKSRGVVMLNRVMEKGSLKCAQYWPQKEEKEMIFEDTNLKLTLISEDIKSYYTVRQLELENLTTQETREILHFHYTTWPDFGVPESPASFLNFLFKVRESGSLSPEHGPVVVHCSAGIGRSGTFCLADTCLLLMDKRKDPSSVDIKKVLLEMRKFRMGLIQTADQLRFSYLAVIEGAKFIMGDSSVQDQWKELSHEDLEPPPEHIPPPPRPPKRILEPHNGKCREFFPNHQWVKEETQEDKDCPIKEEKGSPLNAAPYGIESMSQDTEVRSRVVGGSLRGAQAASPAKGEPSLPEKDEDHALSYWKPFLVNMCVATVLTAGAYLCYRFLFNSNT
As to the kind of experiment: Phosphatase activity assay (DiFMUP substrate). As to conditions: value bin printed in column head. Format: biochemical. The method, then: as §1, §2, §3

For the compound `CC(OC(=O)C(C)C)OC(=O)N1CC(c2ccc(O)c(N3CC(=O)NS3(=O)=O)c2F)=C[C@H]1CCC1CC1` (mixture of isomers) [Compound 111, 1-(isobutyryloxy)ethyl (2R)-2-(2-cyclopropylethyl)-4-(3-(1,1-dioxido-4-oxo-1,2,5-thiadiazolidin-2-yl)-2-fluoro-4-hydroxyphenyl)-2,5-dihydro-1H-pyrrole-1-carboxylate], the IC50 on PTPN2 and at PTP1B was at most 1 µM throughout.
For `CC1(C)CC1CCC1C=C(c2ccc(O)c(N3CC(=O)NS3(=O)=O)c2F)CN1` (stereo not drawn) [Compound 115, 5-(3-(5-(2-(2,2-dimethylcyclopropyl)ethyl)-2,5-dihydro-1H-pyrrol-3-yl)-2-fluoro-6-hydroxyphenyl)-1,2,5-thiadiazolidin-3-one 1,1-dioxide], the IC50 on PTPN2 and at PTP1B was at most 1 µM each time.
Consider `CC(C)C(=O)O[C@H](C)OC(=O)N1CC(c2ccc(O)c(N3CC(=O)NS3(=O)=O)c2F)=C[C@H]1CCC1CC1` [Compound 161, (S)-1-(isobutyryloxy)ethyl (R)-2-(2-cyclopropylethyl)-4-(3-(1,1-dioxido-4-oxo-1,2,5-thiadiazolidin-2-yl)-2-fluoro-4-hydroxyphenyl)-2,5-dihydro-1H-pyrrole-1-carboxylate], for which the half-maximal inhibitory concentration (IC50) on PTPN2 and at PTP1B was at most 1 µM throughout.
With `O=C1CN(c2c(O)ccc(CC3CCNCC3)c2F)S(=O)(=O)N1` [Compound 127, 5-(2-fluoro-6-hydroxy-3-(piperidin-4-ylmethyl)phenyl)-1,2,5-thiadiazolidin-3-one 1,1-dioxide], the IC50 on PTPN2 and at PTP1B was at most 1 µM each time.
With `CC(=O)OC(OC(=O)N1CC(c2ccc(O)c(N3CC(=O)NS3(=O)=O)c2F)=C[C@H]1CCC1CCC1)C(C)C` (stereo partly drawn) [Compound 157, 1-acetoxy-2-methylpropyl (2R)-2-(2-cyclobutylethyl)-4-(3-(1,1-dioxido-4-oxo-1,2,5-thiadiazolidin-2-yl)-2-fluoro-4-hydroxyphenyl)-2,5-dihydro-1H-pyrrole-1-carboxylate], the IC50 at PTPN2 and at PTP1B was at most 1 µM throughout.
Turning to `O=C1CN(c2c(O)ccc(C3=CC(CCC4CCC4)NC3)c2F)S(=O)(=O)N1` (racemic) [Compound 106, 5-(3-(5-(2-cyclobutylethyl)-2,5-dihydro-1H-pyrrol-3-yl)-2-fluoro-6-hydroxyphenyl)-1,2,5-thiadiazolidin-3-one 1,1-dioxide], the IC50 on PTPN2 and at PTP1B was at most 1 µM in each case.
Regarding `O=C1CN(c2c(O)ccc(C(=O)NC3CCNC3)c2F)S(=O)(=O)N1` (stereo not drawn) [Compound 136, 3-(1,1-dioxido-4-oxo-1,2,5-thiadiazolidin-2-yl)-2-fluoro-4-hydroxy-N-(pyrrolidin-3-yl)benzamide], the IC50 on PTPN2 and at PTP1B was above 1 µM in each case.
As to `NC1CCCC1c1ccc(O)c(N2CC(=O)NS2(=O)=O)c1F` (stereo not drawn) [Compound 112, 5-(3-(2-aminocyclopentyl)-2-fluoro-6-hydroxyphenyl)-1,2,5-thiadiazolidin-3-one 1,1-dioxide], the IC50 at PTPN2 and on PTP1B was above 1 µM in each case.
As to `O=C1CN(c2c(O)cc(C3=CCCNC3)cc2F)S(=O)(=O)N1` [Compound 132, 5-(2-fluoro-6-hydroxy-4-(1,2,5,6-tetrahydropyridin-3-yl)phenyl)-1,2,5-thiadiazolidin-3-one 1,1-dioxide], the IC50 at PTPN2 and at PTP1B was at most 1 µM in each case.
`O=C1CN(c2c(O)ccc(C3=CC4CCCN4C3)c2F)S(=O)(=O)N1` (stereo not drawn) [Compound 139, 5-(2-fluoro-6-hydroxy-3-(2,3,5,7a-tetrahydro-1H-pyrrolizin-6-yl)phenyl)-1,2,5-thiadiazolidin-3-one 1,1-dioxide]: the IC50 on PTPN2 and at PTP1B was at most 1 µM throughout.
On to `CCC[C@H]1C=C(c2ccc(O)c(N3CC(=O)NS3(=O)=O)c2F)CN1` [Compound 129, (S)-5-(2-fluoro-6-hydroxy-3-(5-propyl-2,5-dihydro-1H-pyrrol-3-yl)phenyl)-1,2,5-thiadiazolidin-3-one 1,1-dioxide], for which the IC50 at PTPN2 and on PTP1B was at most 1 µM each time.
With `O=C1CN(c2c(O)ccc(C3=C[C@H](CCC4CC4)NC3)c2F)S(=O)(=O)N1` [Compound 130, (S)-5-(3-(5-(2-cyclopropylethyl)-2,5-dihydro-1H-pyrrol-3-yl)-2-fluoro-6-hydroxyphenyl)-1,2,5-thiadiazolidin-3-one 1,1-dioxide], the IC50 on PTPN2 and on PTP1B was at most 1 µM in each case.
`CC(C)CC[C@H]1C=C(c2ccc(O)c(N3CC(=O)NS3(=O)=O)c2F)CN1C(=O)OC(OC(=O)[C@@H](N)C(C)C)C(C)C` (stereo partly drawn) [Compound 162, 1-((L-valyl)oxy)-2-methylpropyl (2S)-4-(3-(1,1-dioxido-4-oxo-1,2,5-thiadiazolidin-2-yl)-2-fluoro-4-hydroxyphenyl)-2-isopentyl-2,5-dihydro-1H-pyrrole-1-carboxylate]: the IC50 on PTPN2 and on PTP1B was at most 1 µM in each case.
Regarding `O=C1CN(c2c(O)ccc(C3=C[C@@H](CCC4CCC4)NC3)c2F)S(=O)(=O)N1` [Compound 116, (R)-5-(3-(5-(2-cyclobutylethyl)-2,5-dihydro-1H-pyrrol-3-yl)-2-fluoro-6-hydroxyphenyl)-1,2,5-thiadiazolidin-3-one 1,1-dioxide], the IC50 on PTPN2 and on PTP1B was at most 1 µM in each case.
With `O=C1CN(c2c(O)ccc(C3=CC(CCCC4CC4)NC3)c2F)S(=O)(=O)N1` (stereo not drawn) [Compound 123, 5-(3-(5-(3-cyclopropylpropyl)-2,5-dihydro-1H-pyrrol-3-yl)-2-fluoro-6-hydroxyphenyl)-1,2,5-thiadiazolidin-3-one 1,1-dioxide], the IC50 at PTPN2 and at PTP1B was at most 1 µM throughout.
For `CC(=O)OC(C)OC(=O)N1CC(c2ccc(O)c(N3CC(=O)NS3(=O)=O)c2F)=C[C@H]1CCC1CC1` (stereo partly drawn) [Compound 121, 1-acetoxyethyl (2R)-2-(2-cyclopropylethyl)-4-(3-(1,1-dioxido-4-oxo-1,2,5-thiadiazolidin-2-yl)-2-fluoro-4-hydroxyphenyl)-2,5-dihydro-1H-pyrrole-1-carboxylate], the IC50 at PTPN2 and on PTP1B was at most 1 µM each time.
As to `CC1CC1C1C=C(c2ccc(O)c(N3CC(=O)NS3(=O)=O)c2F)CN1` (stereo not drawn) [Compound 117, 5-(2-fluoro-6-hydroxy-3-(5-(2-methylcyclopropyl)-2,5-dihydro-1H-pyrrol-3-yl)phenyl)-1,2,5-thiadiazolidin-3-one 1,1-dioxide], the IC50 at PTPN2 and on PTP1B was at most 1 µM each time.
As to `CC(C)(C)CC[C@H]1C=C(c2ccc(O)c(N3CC(=O)NS3(=O)=O)c2F)CN1` [Compound 120, (S)-5-(3-(5-(3,3-dimethylbutyl)-2,5-dihydro-1H-pyrrol-3-yl)-2-fluoro-6-hydroxyphenyl)-1,2,5-thiadiazolidin-3-one 1,1-dioxide], the IC50 on PTPN2 and at PTP1B was at most 1 µM throughout.
